From PubChem BioAssay AID1117319 (Southern Research Institute, 2015)
Inconclusive results are not listed.

Target: Virion infectivity factor (Human immunodeficiency virus type 1 group M subtype B (isolate BH10)) + Virion infectivity factor (Human immunodeficiency virus type 1 group M subtype B (isolate BRU/LAI)) + Virion infectivity factor (Human immunodeficiency virus type 1 group M subtype B (isolate PCV12)) + Virion infectivity factor (Human immunodeficiency virus type 1 group M subtype B (isolate HXB2)) + DNA dC->dU-editing enzyme APOBEC-3G (Homo sapiens) (UniProt P69720+P69721+P69722+P69723+Q9HC16)
Assay: HIV-1 Vif–A3G interaction blockers – biochemical, TR-FRET, GST-Vif 1-94, biotin-A3G peptide, dose response retest, primary screen (AID 1117319);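 note: Vif residues 1-94 fused to GST binding biotinylated APOBEC3G peptide 110-148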
Details: TR-FRET GST-Vif / biotin-A3G peptide binding

Structure (SMILES)	IC50 [µM]
COC1=CC(=O)C(C2CC(=O)c3c(O)cc(O)cc3O2)=CC1=O (stereo unspecified)	15
NC(=O)c1c(NC(=O)Cc2cccs2)sc2c1CCC2	49.5
CCN(CC)c1ccc(NC2=C(Cl)C(=O)c3ccccc3C2=O)cc1	3.81
O=C1/C(=C/C=C/c2ccco2)SC(=S)N1c1ccc(O)cc1	2.57
Cc1cccc(/C=C(\C(=O)O)c2ccc(S(=O)(=O)N3CCCC3)s2)c1	22
NC1=NC(=O)/C(=C\c2ccco2)S1	3.07
COc1ccc(OC)c(S(=O)(=O)Nc2ccc(O)c3ccccc23)c1	8.62
O=C(CCN1C(=O)/C(=C/c2cccs2)SC1=S)NC1=NCCS1	12.3
O=C1c2ccccc2CC1Sc1nnc(-c2ccccn2)o1 (stereo unspecified)	98.4
O=C(Nc1ccc(F)cc1)C(c1ccccc1)N1CCN(S(=O)(=O)c2ccc3ccccc3c2)CC1 (stereo unspecified)	13.5
NC(=S)N=Nc1c(O)cc(O)c2[nH]c(=O)ccc12	8.04
Cc1cccc(NC(=O)CNC(=O)c2cccc(-n3cccc3)c2)c1C	12.2
CCOC(=O)C1=C(C)N=C2SC(C(=O)OC)=CC(=O)N2C1c1cc(OC)c(OC)c(OC)c1 (stereo unspecified)	11
O=[n+]1c2c(n([O-])c3cc(Br)ccc31)CCC2	19.4
COc1cc(OC)c2c(O)c3c(c(-c4c5c(c(O)c6c(OC)cc(OC)cc46)CO[C@@H](C)[C@H]5O)c2c1)[C@H](O)[C@H](C)OC3	4.61
O=C(c1ccc2nc(-c3ccco3)c(-c3ccco3)nc2c1)N1CCC2(CC1)OCCO2	0.35
O=C(O)c1ccc(-n2nc(C(F)(F)F)c3c2-c2ccoc2CC3)cc1	58.6
CCSC1=C(C#N)C(c2cccs2)C(C(=O)OC)=C(C)N1 (stereo unspecified)	75.5
COC(=O)c1ccc(C(=O)OC)c(NC(=O)Cc2cccs2)c1	4.22
Cc1cccc2c1c1ccc3c(c1n2C)C(=O)C=CC3=O	7.63
CCCCC1=CC2=CC(=O)C(C)(OC(=O)C3CCCC3)C(=O)C2=CO1 (stereo unspecified)	15.2
O=C(NCCc1c[nH]c2ccccc12)c1ccc(S(=O)(=O)NCc2ccco2)cc1	33.3
COc1ccc2c(c1)c(=O)oc1cc(OCC(=O)N3CCC(C)CC3)ccc12	54.6

Structure (SMILES)	IC50 [µM]
O=C(O)CCc1ccc(-c2cccs2)n1-c1ccc(C(=O)O)cc1	80.6
O=C(COc1ccc(Cl)cc1)N1CCN(S(=O)(=O)c2ccc(Cl)cc2)CC1	50.7
COc1cccc(NC(=O)CSc2nnc(-c3ccco3)c(-c3ccco3)n2)c1	10.2
C/C(=N\Nc1ccc(Cl)c(C(=O)O)c1)c1ccc[nH]1	8.87
COc1ccc(N2CCN(C(=O)COc3ccccc3)CC2)cc1	76.9
CCOC(=O)Cc1cc(=O)n2[nH]c(C)cc2n1	75.3
N=C1S/C(=C\c2ccco2)C(=O)N1c1ccc2c(c1)OCO2	9.26
Cc1nc2ccccc2n2c(O)c(CC(=O)O)cc12	30.2
Cc1ccc([C@@H]2C3COCC=C3C(C#N)=C(N)C2(C#N)C#N)o1 (stereo partly specified)	10.3
CCN(CC)c1ccc2c(c1)CCCN2	1.17
O=C(c1ccccc1Br)N1CCN(c2ccccc2)CC1	38.7
O=C(NN1C(=O)/C(=C/C=C/c2ccco2)SC1=S)c1ccccc1O	1.93
O=S(=O)(O)c1cccc2c(N=Nc3ccc(O)c4ncccc34)cccc12	13.6
COc1cccc(NS(=O)(=O)c2ccc3c(c2)C2C=CCC2C(c2ccc(C(=O)O)cc2)N3)c1 (stereo unspecified)	3.32
O=C1[C@@H]2C(Cc3ccc(O)cc3)NC3(C(=O)Nc4ccc(F)cc43)[C@@H]2C(=O)N1c1ccc(F)cc1 (stereo partly specified)	64.5
O=c1cc(CO)oc(C(Nc2ccccn2)c2ccc(F)cc2)c1O (stereo unspecified)	85.7
Cc1ccc(Nc2ccc(N)cc2S(=O)(=O)O)cc1	32
CCN1/C(=C/C=C/C=C/C=C/c2sc3ccccc3[n+]2CC)Sc2ccccc21	4.33
O=C1C(Cl)=C(N2CCOCC2)C(=O)N1c1ccccc1	2.18
Cn1c2ccccc2c2ccc3c(c21)C(=O)C=CC3=O	23.8
O=C(Nc1cccc(C(F)(F)F)c1)c1ccc2nc(-c3ccco3)c(-c3ccco3)nc2c1	0.69
COc1ccc2[nH]c(=O)c(CN(Cc3ccco3)C(c3nnnn3Cc3ccccc3)C(C)C)cc2c1 (stereo unspecified)	94.6
O=C(NCCO)Nc1ccc2nc(-c3ccco3)c(-c3ccco3)nc2c1	0.24

Structure (SMILES)	IC50 [µM]
O=C1C=CC(=O)c2c(O)c(CO)c(CO)c(O)c21	0.47
O=C(CN1CCN(c2ccccc2O)CC1)Nc1ccc2c(c1)CCC2	50.8
CCn1c(SCC(=O)OC)nc2sc3c(c2c1=O)CCC3	12.7
Cc1cc(C(=O)CSc2nnc(-c3ccco3)o2)c(C)n1Cc1ccco1	1.97
Oc1ccc(NCc2ccccc2OCc2ccccc2)cc1	3.97
O=C(O)c1ccc(-n2cccc2/C=N\NC(=O)c2cc3cc(Br)ccc3o2)cc1	6.47
O=C(O)CCCCC1SCC2NC(=O)NC21 (stereo unspecified)	0.27
CCN(CC)C(=O)c1ccc2c(c1)C1C=CCC1C(C(=O)O)N2 (stereo unspecified)	2.81
COc1ccc(CN2C(=O)NC(=O)/C(=C/c3ccc([N+](=O)[O-])s3)C2=O)cc1	14.5
Cc1cc(O)c(Oc2cc(C)cc(O)c2O)c(O)c1	13.8
FC(F)(F)C1=Nc2cccc3cccc(c23)N1	5.95
COc1ccc(NC(=O)/C(C#N)=C/c2ccc(Br)o2)cc1	14.7
O=C(CCCN1C(=O)/C(=C\c2ccco2)SC1=S)Nc1cccc2ccccc12	2.56
COc1cccc(N2C(=O)NC(=O)/C(=C/c3ccc([N+](=O)[O-])s3)C2=O)c1	7.18
COC(=O)c1ccccc1-c1c2ccc(=N)cc-2oc2cc(N)ccc12	13.6
Nc1cc(N)c(OCC(F)(F)F)cc1OCC(F)(F)F	9.47
CC(C)CC(NC(=O)/C(=C/c1ccco1)NC(=O)c1ccc(Br)o1)C(=O)O (stereo unspecified)	93.5
CCCC(=O)N(CCc1ccc(OC)cc1)Cc1nc2ccccc2c(=O)[nH]1	14.4
COC(=O)C1=COC(C)C2CN3CCc4c([nH]c5ccccc45)C3CC12 (stereo unspecified)	17.9
CCN(CC)Cc1cc(Nc2c3ccccc3nc3c4ccccc4n(C)c23)cc(CN(CC)CC)c1O	10.9
CCOc1ccc(N(CC(=O)NC(C)(C)C)S(=O)(=O)c2c(C)noc2C)cc1	5.1
CC(C)(C)c1ccc(-c2nnc(SCCC#N)n2C2CCCC2)cc1	86.7
COc1ccc(OCCOC(=O)c2cccc(-n3cnnn3)c2)cc1	93.6

Structure (SMILES)	IC50 [µM]
COc1cccc(CNCCc2c[nH]c3ccccc23)c1OCc1ccccc1	56
Fc1cccc(-c2cc3nc4c(c(NCc5ccco5)n3n2)CCCC4)c1	50.8
CC1COCC(C)N1C1=C(Cl)C(=O)c2ccccc2C1=O (stereo unspecified)	11
COc1cc(CNc2ccc(O)cc2)cc(Br)c1OCc1ccccc1	3.04
Cc1cc(C)cc(N(CC(=O)NCc2cccnc2)S(C)(=O)=O)c1	36.7
O=C(c1ccc2nc(-c3ccco3)c(-c3ccco3)nc2c1)N1CCN(c2ncccn2)CC1	1.03
CC(=O)c1sc2nc(-c3ccco3)ccc2c1N	2.78
C=CCn1c(SCC(=O)NCCCC)nc2scc(-c3ccco3)c2c1=O	20.4
CC(CNc1ccccc1O)C(=O)O (stereo unspecified)	6.17
O=C(COC(=O)c1ccc(NS(=O)(=O)c2cccs2)cc1)NCc1ccco1	5.88
CCOC(=O)C(=O)NCc1ccc(/C=C2/N=C(C)C(C(=O)OCC)=C2O)o1	6.18
CCCC(=Nc1ccc(N)cc1)C1=C(O)C(C(=O)OC)C(C)(C)CC1=O (stereo unspecified)	2.76
N=C(N)c1ccc(N=Nc2c(O)ccc3c2[nH]c2ccccc23)cc1	3.87
COc1ccc2nc3ccccc3nc2c1N	6
CC(C)C1Nc2ccc(C(=O)O)cc2C2C=CCC21 (stereo unspecified)	8.06
O=C(NCc1ccccn1)c1coc(=O)c(Br)c1	58.6
COc1ccc(NC(=O)CCCSc2ccccc2)cc1	47.3
Oc1c(CN2CCOCC2)cc(CN2CCOCC2)c(O)c1O	9.18
CC1=C/C(=N\OS(=O)(=O)c2ccccc2)C=CC1=O	16.7
Cc1ccc(C2C(C#N)=C(N)Oc3c2oc(CO)cc3=O)o1 (stereo unspecified)	2.04
Oc1ccc(/C=N/NP(=S)(c2ccccc2)c2ccccc2)c(O)c1O	17.6
O=C(O)C1Nc2c(O)cccc2C2C=CCC12 (stereo unspecified)	0.25
Cc1ncc(CO)c(/C=N/NC(=O)c2cc(O)c(O)c(O)c2)c1O	2.45

Structure (SMILES)	IC50 [µM]
CCOC(=O)N1CCN(C(=O)c2ccc3c(SCC(=O)O)c4c(nc3c2)CCC4)CC1	1.9
FC(F)(F)c1cc(-c2ccco2)nc(NCc2cccnc2)n1	42.3
O=C(NC(=S)Nc1cccc(S(=O)(=O)NC2=NCCC2)c1)c1cc(-c2ccco2)nc2ccccc12	8.99
COc1cccc(CNC(=O)CCNS(=O)(=O)c2cccs2)c1	1.44
CCOC(=O)c1ccc(CC(=O)c2ccc(O)c(O)c2O)o1	11.5
COc1ccccc1NC(=O)COC(=O)c1cc2c(s1)CCC2	17.6
COc1ccc(NC(=O)c2ccccc2NC(=O)CSc2ccc(Cl)cc2)cc1	57.7
Cn1c(SCC(=O)c2cc(Cl)c(Cl)s2)nnc1-c1ccco1	30.7
c1coc(-c2nc(-c3ccco3)c(-c3ccco3)nc2-c2ccco2)c1	0.35
CNc1c(C(=O)O)ccc2c1C(=O)c1ccccc1C2=O	25
Cc1ccc(C=C2C(Cl)=C(Cl)C(Cl)=C2Cl)cc1	2.1
O=C(O)c1cc(N2N=C(C(F)(F)F)/C(=C/C=C/c3ccco3)C2=O)ccc1Cl	1.04
Cc1cc(C(=O)CN2C(=O)c3ccccc3S2(=O)=O)c(C)n1CC1CCCO1 (stereo unspecified)	51.2
CCOC(=O)C1=C(N)n2c(s/c(=C\c3ccco3)c2=O)=C(C(=O)OC(C)C)C1c1ccco1 (stereo unspecified)	1.23
CN(C)c1cc(Cl)c2nonc2c1N	11.9
COc1c(OC(C)=O)ccc(/C=C/c2ccc3ccccc3n2)c1[N+](=O)[O-]	97.2
COc1ccccc1-n1cnc2cc(NCc3cccs3)ccc21	82.7
COC/C=C/C1=CC2=CC(=O)C(C)(OC(=O)CCC(=O)OC)C(=O)C2=CO1 (stereo unspecified)	1.35
O=C1/C(=C/c2ccco2)SC(=S)N1C1CCS(=O)(=O)C1 (stereo unspecified)	3.88
